Data reported in patent publication US7994318B2, “Coumarin derivatives useful as TNFα inhibitors” (Chugai Seiyaku Kabushiki Kaisha, priority 2000, dated 2011).

What follows are compounds tested on TNFα (assay: In vitro assay: TNFα ELISA of supernatants of LPS-stimulated human PBMC). Details: Homo sapiens, PBMC, human PBMC pretreated with drug 60 min, stimulated with LPS (E. coli O55:B5) 100 ng/mL, overnight culture, TNFα in supernatant by ELISA; read-out: 50% Inhibition of TNFα level (IC50).
Type: cell-based
Procedure: Enzyme-linked immunosorbent assays (ELISA) for TNFα can be performed in a conventional manner (Blood, 75, 40-47 (1990)). Human PBMC are isolated from heparinized venous blood obtained from healthy volunteers by Ficoll-Hypaque density centrifugation. The cells are cultured in RPMI1640 medium supplemented with 5% heat-inactivated fetal calf serum and antibiotics. PBMC (5×10E5 cells/mL) in 0.2 mL aliquot are pretreated with drugs in DMSO for 60 min at 37° C. in 96 well round-bottomed tissue culture plates. Thereafter, PBMC in the presence or absence of compound are stimulated with 1 mg/mL LPS from E. coli O55:B5 at a final concentration of 100 ng/mL. After overnight culture, the supernatants are harvested and assayed immediately for TNFα levels from each well. The concentration of TNFα in the supernatant is determined by human TNFα ELISA Kit according to the manufacture's directions.
Active compounds are characterized by the concentration of the compound that caused 50% inhibition of TNFα level (IC50).

Row | SMILES | IC50 [µM]
1 | CC(=O)Nc1cccc(Cc2c(C)c3cc(Cl)c(OC(=O)N(C)C)cc3oc2=O)c1 [Example 12, dimethyl carbamic acid 2-oxo-2H-3-(m-acetylamidobenzyl)-4-methyl-6-chloro1-benzopyran-7-yl ester] | < 0.6
2 | CN(C)C(=O)Oc1ccc2c(CC(O)c3ccccn3)c(Cc3ccccc3)c(=O)oc2c1 (stereo not drawn) [Example 5, dimethyl carbamic acid 2-oxo-2H-3-benzyl-4-(2-(2-pyridyl)-2-hydroxylethyl)-1-benzopyran-7-yl ester] | 19.3
3 | CCCc1c(Cc2ccc(F)cc2)c(=O)oc2cc(OC(=O)N(C)C)ccc12 [Example 7, dimethyl carbamic acid 2-oxo-2H-3-(4-fluorobenzyl)-4-n-propyl-1-benzopyran-7-yl ester] | 1.17
4 | COc1cc2c(C)c(Cc3ccccc3)c(=O)oc2cc1OC(=O)N(C)C [Example 3, dimethyl carbamic acid 2-oxo-2H-3-benzyl-4-methyl-6-methoxy-1-benzopyran-7-yl ester] | 0.58
5 | Cc1c(Cc2ccccc2)c(=O)oc2cc(Oc3ncccn3)ccc12 [Example 15, 2-oxo-2H-3-benzyl-4-methyl-7-(pyrimidin-2-yloxyl)-1-benzopyrane] | 9.4
6 | CN(C)C(=O)Oc1ccc2c(CCO)c(Cc3ccccc3)c(=O)oc2c1 [Example 4, dimethyl carbamic acid 2-oxo-2H-3-benzyl-4-(2-hydroxylethyl)-1-benzopyran-7-yl ester] | 2.1
7 | Cc1c(Cc2ccncc2)c(=O)oc2cc(OC(=O)N(C)C)c(Cl)cc12 [Example 11, dimethyl carbamic acid 2-oxo-2H-3-(p-pyridinylmethyl)-4-methyl-6-chloro-1-benzopyran-7-yl ester] | 0.13
8 | C=Cc1ccc2c(C)c(Cc3ccccc3)c(=O)oc2c1 [Example 23, 2-oxo-3-benzyl-4-methyl-7-vinyl-2H-1-benzopyrane] | 10.3
9 | Cc1c(Cc2ccccc2)c(=O)oc2cc(Oc3nccs3)ccc12 [Example 21, 2-oxo-3-benzyl-4-methyl-7-(thiazol-2-yloxyl)-2H-1-benzopyrane] | 9.1
10 | Cc1c(Cc2ccccc2)c(=O)oc2cc(OC(=O)N(C)C)c(C#N)cc12 [Example 9, dimethyl carbamic acid 2-oxo-2H-3-benzyl-4-methyl-6-cyano-1-benzopyran-7-yl ester] | 0.85
11 | Cc1c(Cc2ccccc2)c(=O)oc2cc(SC(=O)N(C)C)ccc12 [Example 13, dimethyl thiocarbamic acid S-2-oxo-2H-3-benzyl-4-methyl-1-benzopyran-7-yl ester] | 0.68
12 | Cc1c(Cc2ccccc2)c(=O)oc2cc(OC(=O)N(C)C)cc(F)c12 [Example 10, dimethyl carbamic acid 2-oxo-2H-3-benzyl-4-methyl-5-fluoro-1-benzopyran-7-yl ester] | < 0.6

Same assay, conditions: human PBMC pretreated with drug 60 min, stimulated with LPS (E. coli O55:B5) 100 ng/mL, overnight culture, TNFα in supernatant by ELISA; listed as 14-4; read-out: 50% Inhibition of TNFα level (IC50)

Row | SMILES | IC50 [µM]
13 | Cc1c(Cc2ccccc2)c(=O)oc2cc(OC(=O)N(C)C)cc(F)c12 [Example 10, dimethyl carbamic acid 2-oxo-2H-3-benzyl-4-methyl-5-fluoro-1-benzopyran-7-yl ester] | 0.44

Same assay, conditions: human PBMC pretreated with drug 60 min, stimulated with LPS (E. coli O55:B5) 100 ng/mL, overnight culture, TNFα in supernatant by ELISA; listed as 14-25; read-out: 50% Inhibition of TNFα level (IC50)

Row | SMILES | IC50 [µM]
14 | CC(=O)Nc1cccc(Cc2c(C)c3cc(Cl)c(OC(=O)N(C)C)cc3oc2=O)c1 [Example 12, dimethyl carbamic acid 2-oxo-2H-3-(m-acetylamidobenzyl)-4-methyl-6-chloro1-benzopyran-7-yl ester] | 0.31

Same assay, conditions: human PBMC pretreated with drug 60 min, stimulated with LPS (E. coli O55:B5) 100 ng/mL, overnight culture, TNFα in supernatant by ELISA; read-out: 50% Inhibition of TNFα level (IC50)

Row | IC50 [µM] | SMILES
15 | 8.2 | Cc1c(Cc2ccccc2)c(=O)oc2cc(C(O)c3ccsc3)ccc12 (stereo not drawn) [Example 26-22]
16 | < 0.6 | CCOC(=O)CC(=O)Nc1cccc(Cc2c(C)c3cc(Cl)c(Oc4ncccn4)cc3oc2=O)c1 [Example 20-29]
17 | 0.65 | CCOC(=O)CC(=O)Nc1cccc(Cc2c(CC)c3c(F)cc(Oc4ncccn4)cc3oc2=O)c1 [Example 20-61]
18 | 11.8 | CC(=O)Nc1cccc(Cc2c(C)c3c(Cl)cc(Oc4ncccn4)cc3oc2=O)c1 [Example 20-37]
19 | 5.1 | Cc1c(Cc2cccc(N(C)C)c2)c(=O)oc2cc(Oc3ncccn3)c(Cl)cc12 [Example 20-27]
20 | 6 | Cc1c(Cc2cccc(N)c2)c(=O)oc2cc(Oc3nccs3)ccc12 [Example 22-4]
21 | 10.6 | Cc1c(Cc2cccc(NC(=O)CC(=O)O)c2)c(=O)oc2cc(Oc3ncccn3)c(Cl)cc12 [Example 20-34]
22 | 6.6 | Cc1c(Cc2cccc([N+](=O)[O-])c2)c(=O)oc2cc(Oc3nccs3)ccc12 [Example 22-2]
23 | 0.27 | CCOC(=O)CC(=O)Nc1cccc(Cc2c(CC)c3ccc(Oc4nccs4)cc3oc2=O)c1 [Example 22-9]
24 | 0.3 | CCS(=O)(=O)Nc1cccc(Cc2c(C)c3cc(Cl)c(Oc4ncccn4)cc3oc2=O)c1 [Example 20-44]
25 | 0.14 | CCOC(=O)CC(=O)Nc1cccc(Cc2c(C)c3c(F)cc(OC(=O)N(C)C)cc3oc2=O)c1 [Example 14-8]
26 | 10.9 | CCc1c(Cc2ccccc2)c(=O)oc2cc(Oc3ncccn3)ccc12 [Example 20-49]
27 | 2.4 | CCOC(=O)CNC(=O)Nc1cccc(Cc2c(C)c3ccc(OC(=O)N(C)C)cc3oc2=O)c1 [Example 14-71]
28 | 3.6 | CCc1c(Cc2cccc(NC(C)=O)c2)c(=O)oc2cc(Oc3ncccn3)c(Cl)cc12 [Example 20-57]
29 | 0.31 | Cc1c(Cc2cccc(NS(=O)(=O)C(C)C)c2)c(=O)oc2cc(Oc3ncccn3)c(Cl)cc12 [Example 20-47]
30 | 8.8 | Cc1c(Cc2ccccc2)c(=O)oc2cc(Oc3ncccn3)c(I)cc12 [Example 20-5]
31 | 9.7 | Cc1c(Cc2ccccc2)c(=O)oc2cc(Oc3ncccn3)cc(F)c12 [Example 20-14]

Row | IC50 [µM] | SMILES
32 | 6.3 | Cc1c(Cc2ccccc2)c(=O)oc2cc(C=O)ccc12 [Example 26-1]
33 | 4.4 | CCc1c(Cc2cccc(NC(C)=O)c2)c(=O)oc2cc(Oc3ncccn3)cc(F)c12 [Example 20-60]
34 | 4.5 | CCc1c(Cc2ccccc2)c(=O)oc2cc(Oc3ncccn3)c(Cl)cc12 [Example 20-50]
35 | 1.2 | CCOC(=O)CCC(=O)Nc1cccc(Cc2c(C)c3cc(Cl)c(Oc4ncccn4)cc3oc2=O)c1 [Example 20-28]
36 | 2.4 | CCNC(=O)Nc1cccc(Cc2c(C)c3ccc(OC(=O)N(C)C)cc3oc2=O)c1 [Example 14-69]
37 | 7.5 | Cc1c(Cc2ccncc2)c(=O)oc2cc(Oc3ncccn3)c(Cl)cc12 [Example 20-13]
38 | 10.1 | Cc1c(Cc2cccc([N+](=O)[O-])c2)c(=O)oc2cc(Oc3nccs3)cc(F)c12 [Example 22-3]
39 | 6.4 | CCc1c(Cc2cccc([N+](=O)[O-])c2)c(=O)oc2cc(Oc3ncccn3)c(Cl)cc12 [Example 20-55]
40 | 10.5 | Cc1c(Cc2ccccc2)c(=O)oc2cc(Oc3nccs3)ccc12 [Example 21, 2-oxo-3-benzyl-4-methyl-7-(thiazol-2-yloxyl)-2H-1-benzopyrane]
41 | 0.96 | CCCS(=O)(=O)Nc1cccc(Cc2c(C)c3cc(Cl)c(Oc4ncccn4)cc3oc2=O)c1 [Example 20-46]
42 | 6.6 | CC(=O)Nc1cccc(Cc2c(C)c3ccc(Oc4ncccn4)cc3oc2=O)c1 [Example 20-20]
43 | 9.5 | Cc1c(Cc2ccccc2)c(=O)oc2cc(Oc3ncccn3)c(Br)cc12 [Example 20-4]
44 | 9 | Cc1c(Cc2ccccc2)c(=O)oc2cc(C(C)(F)F)ccc12 [Example 26-11]
45 | 9.8 | Cc1c(Cc2cccc(NC(=O)CNC(=O)OCc3ccccc3)c2)c(=O)oc2cc(Oc3ncccn3)c(Cl)cc12 [Example 20-31]
46 | 3.9 | Cc1c(Cc2ccccc2)c(=O)oc2cc(OC(=O)N(C)C)c(C#C[Si](C)(C)C)cc12 [Example 14-18]
47 | 1.8 | CCCCS(=O)(=O)Nc1cccc(Cc2c(C)c3cc(Cl)c(Oc4ncccn4)cc3oc2=O)c1 [Example 20-48]

Row | SMILES | IC50 [µM]
48 | CCc1c(Cc2ccccc2)c(=O)oc2cc(OC(=O)N(C)C)ccc12 [Example 14-73] | 1.7
49 | Cc1c(Cc2cccc(N)c2)c(=O)oc2cc(OC(=O)N(C)C)ccc12 [Example 14-65] | 2.7
50 | CCc1c(Cc2cccc(N)c2)c(=O)oc2cc(OC(=O)N(C)C)ccc12 [Example 14-78] | 1.3
51 | Cc1c(Cc2cccc(N(C)C)c2)c(=O)oc2cc(OC(=O)N(C)C)ccc12 [Example 14-72] | 1.9
52 | Cc1c(Cc2ccccn2)c(=O)oc2cc(OC(=O)N(C)C)ccc12 [Example 14-30] | 6.47
53 | Cc1c(Cc2ccccc2[N+](=O)[O-])c(=O)oc2cc(OC(=O)N(C)C)c(Cl)cc12 [Example 14-21] | 3
54 | COc1cccc(Cc2c(C)c3ccc(OC(=O)N(C)C)cc3oc2=O)c1 [Example 14-45] | 3.2
55 | COC(=O)c1cccc(Cc2c(C)c3ccc(OC(=O)N(C)C)cc3oc2=O)c1 [Example 14-67] | 1.7
56 | Cc1c(Cc2cccc([N+](=O)[O-])c2)c(=O)oc2cc(OC(=O)N(C)C)cc(F)c12 [Example 14-5] | 3.7
57 | Cc1c(Cc2ccccc2)c(=O)oc2cc(OC(=O)N(C)C)c(Br)cc12 [Example 14-15] | 0.06
58 | COc1ccc(Cc2c(C)c3ccc(OC(=O)N(C)C)cc3oc2=O)cc1 [Example 14-46] | 5.6
59 | Cc1c(Cc2ccc(C(C)C)cc2)c(=O)oc2cc(OC(=O)N(C)C)ccc12 [Example 14-52] | 11.6
60 | Cc1cc2c(C)c(Cc3ccccc3)c(=O)oc2cc1OC(=O)N(C)C [Example 14-14] | 0.4
61 | CCOC(=O)CC(=O)Nc1cccc(Cc2c(C)c3cc(Cl)c(OC(=O)N(C)C)cc3oc2=O)c1 [Example 14-26] | 0.05
62 | CCc1c(Cc2ccncc2)c(=O)oc2cc(OC(=O)N(C)C)c(Cl)cc12 [Example 14-81] | 0.34
63 | Cc1c(Cc2ccc(N)cc2)c(=O)oc2cc(OC(=O)N(C)C)ccc12 [Example 14-66] | 5.2
